Source: paper PMC6768323, “Adverse Maternal, Fetal, and Postnatal Effects of Hexafluoropropylene Oxide Dimer Acid (GenX) from Oral Gestational Exposure in Sprague-Dawley Rats” (Environmental Health Perspectives, 2019)
Several values for one entry are separate records, joined by “and”; a condition that tells them apart may be missing. Equal values may be shown once.

Assays:
[1] = test system: pregnant Sprague-Dawley rats; assay: Maternal serum thyroid hormones and lipid panel; assay type: in vivo
Protocol: Maternal serum samples from the first two blocks were analyzed for thyroid hormones and a standard lipid panel. Total triiodothyronine ( T3 ) and thyroxine ( T4 ) were quantified by radioimmunoassay (RIA) according to manufacturer specifications (IVD Technologies). […] Thyroid hormone RIA values were considered below detection when specific binding ( B/B0 ) was ≥90% ( 0.2 ng/mL for T3 and 2 ng/mL for T4 ) ([Sui and Gilbert 2003]). Serum total cholesterol, high-density lipoproteins (HDL), low-density lipoproteins (LDL), and triglycerides were quantified using a Beckman Coulter AU480 clinical chemistry analyzer (Beckman Coulter, Inc.) as per manufacturer’s protocol. All reagents were obtained from the instrument manufacturer except for the LDL assay, which was obtained from Diazyme Laboratories.

estrogen (ER) receptor = assay: ER transcriptional activation, T47D-KBluc cells; assay type: cell-based; conditions: 100 pM to 10 μM
Protocol: HFPO-DA was assessed for agonism and antagonism of transcriptional activation for estrogen (ER), androgen (AR), and glucocorticoid receptors (GR). Method details for in vitro transactivation assays for ER ([Wilson et al. 2004a]), AR ([Hartig et al. 2002], [2007]), and GR ([Conley et al. 2017]; [Medlock Kakaley et al. 2018]) have been previously reported. Briefly, for ER activity we utilized the stably transfected T47D-KBluc cell line [publicly available via American Type Culture Collection (ATCC); CRL-2865] according to protocols provided by ATCC with the modification of Dulbecco’s Modified Eagle Media (DMEM) as the cell culture media instead of Roswell Park Memorial Institute (RPMI) media. […] All assays were run in 96-well plates and luminescence was detected using a BMG Fluostar Omega luminometer (BMG Labtech) following 24-h exposure. […] Cellular cytotoxicity across the dosing range was determined for CV-1 cells utilizing the 3-(4,5-dimethylthiazol-2-yl)-2,5-diphenyltetrazolium bromide (MTT) dye ([Mosmann 1983]). HFPO-DA was analyzed using n=2–3 biological replicate assay plates (i.e., unique cell passages) with four technical replicates per treatment per plate. […]

O=C(O)C(F)(OC(F)(F)C(F)(F)C(F)(F)F)C(F)(F)F (centres unmarked) [HFPO-DA, Hexafluoropropylene oxide dimer acid]
serum total T3 in the top two dose levels ([1]; 250 and 500 mg/kg/d): < 0.2 ng/mL
Dam serum HDL ([1]; GD18, 1-500 mg/kg/d): 36.3 ± 3.7 mg/dL and 36.0 ± 2.5 mg/dL and 33.0 ± 3.6 mg/dL and 37.0 ± 1.2 mg/dL and 36.7 ± 4.7 mg/dL and 28.7 ± 3.2 mg/dL and 19.3 ± 2.7 mg/dL
Dam serum LDL ([1]; GD18, 1-500 mg/kg/d): 14.7 ± 0.9 mg/dL and 14.0 ± 1.2 mg/dL and 12.7 ± 0.9 mg/dL and 12.3 ± 1.9 mg/dL and 13.3 ± 1.9 mg/dL and 19.0 ± 3.2 mg/dL and 14.7 ± 0.3 mg/dL and 14.0 ± 0.6 mg/dL
dose with lower maternal serum thyroid hormone and lipid profiles ([1]; oral GD14-18): ≥ 30 mg/kg
dose with significantly lower serum total T3 ([1]; rat, in vivo): ≥ 30 mg/kg
dose with significantly lower serum triglycerides ([1]; rat, in vivo): 500 mg/kg
dose with significantly lower total T4 and LDL ([1]; rat, in vivo): ≥ 125 mg/kg
estrogenic activity (agonism or antagonism) (estrogen (ER) receptor): did not display any estrogenic activity
